Source: US8383629B2, “Inhibitors of 11β-hydroxysteroid dehydrogenase type 1” (Vitae Pharmaceuticals, Inc., priority 2008, dated 2013)

Molecular target: T1, human 11β-HSD1 (Homo sapiens, UniProt P28845)
T1 construct: expressed in transfected cells; host or cells: CHO cells (microsomes)
Assay: Inhibition of microsomal preparation of 11β-HSD1 (SPA, Biological Test Example 1)
Format: biochemical
Conditions: for IC50: microsomes from CHO cells overexpressing human 11β-HSD1, read-out: IC50 Range; for inhibition at 0.1 µM: 100 nM
In short: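 Microsomes from CHO cells overexpressing human 11β-HSD1 reduced [3H]cortisone (160 nM in substrate solution, with 2 mM NADPH, HEPES pH 7.4) for 90 min at rt after a 10 min compound preincubation. Compounds were run as 8-point half-log DMSO dilutions from 0.1 mM. 18β-glycyrrhetinic acid stopped the reaction, and anti-cortisol antibody SPA beads read [3H]cortisol.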

T1 sequence (P28845 whole entry): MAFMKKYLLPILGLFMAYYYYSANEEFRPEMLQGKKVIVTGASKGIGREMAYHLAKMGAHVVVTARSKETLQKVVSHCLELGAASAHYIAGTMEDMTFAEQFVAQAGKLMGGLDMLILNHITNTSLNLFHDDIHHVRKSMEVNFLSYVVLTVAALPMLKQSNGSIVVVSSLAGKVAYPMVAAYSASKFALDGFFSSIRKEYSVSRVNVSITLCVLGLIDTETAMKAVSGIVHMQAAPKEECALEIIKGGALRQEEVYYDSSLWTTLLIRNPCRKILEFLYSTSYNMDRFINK

| SMILES | inhibition at 0.111 µM (111 nM) | IC50 | inhibition at 0.1 µM | Average % inhibition at 111 nM (111 nM, 0.111 µM) |
| --- | --- | --- | --- | --- |
| CCOC(=O)CC1CC2(CCN(C(=O)CCc3ccccc3C(F)(F)F)CC2)c2c(Br)cccc21 (centres unmarked) [EXAMPLE 56, Ethyl 2-(7-bromo-1′-(3-(2-(trifluoromethyl)phenyl)propanoyl)-2,3-dihydrospiro[indene-1,4′-piperidine]-3-yl)acetate] | 92.7% | < 100 nM |  |  |
| CCOc1ccccc1CNC(=O)N1CCC2(CC1)CC(CC(=O)O)c1cccc(Br)c12 (centres unmarked) [EXAMPLE 84, 2-(7-bromo-1′-(2-ethoxybenzylcarbamoyl)-2,3-dihydrospiro[indene-1,4′-piperidine]-3-yl)acetic acid] | 42.6% | 100 to 1000 nM |  |  |
| O=C(O)CC1CC2(CCN(C(=O)NCc3cc(F)c(F)cc3F)CC2)c2c(Br)cccc21 (centres unmarked) [EXAMPLE 83, 2-(7-bromo-1′-(2,4,5-trifluorobenzylcarbamoyl)-2,3-dihydrospiro[indene-1,4′-piperidine]-3-yl)acetic acid] | 10.9% | 100 to 1000 nM |  |  |
| O=C(O)CC1CC2(CCN(C(=O)/C=C/c3cccc(Cl)c3Cl)CC2)c2c(Cl)cccc21 (racemic) [EXAMPLE 9, (±)-(E)-2-(7-chloro-1′-(3-(2,3-dichlorophenyl)acryloyl)-2,3-dihydrospiro[indene-1,4′-piperidine]-3-yl)acetic acid] | 77.8% | < 100 nM |  |  |
| COc1ccc2c(c1)CCNC21CCN(C(=O)CCc2ccccc2C(F)(F)F)CC1 [EXAMPLE 62, 1-(6-methoxy-3,4-dihydro-2H-spiro[isoquinoline-1,4′-piperidine]-1′-yl)-3-(2-(trifluoromethyl)phenyl)propan-1-one] | 87.2% | < 100 nM |  |  |
| O=C1NC2(CCN(C(=O)/C=C/c3ccccc3C(F)(F)F)CC2)c2c(Cl)cccc21 [EXAMPLE 27, (E)-7-chloro-1′-(3-(2-(trifluoromethyl)phenyl)acryloyl)spiro[isoindoline-1,4′-piperidin]-3-one] | 89.8% | < 100 nM |  |  |
| CN1C(=O)C2(CCN(C(=O)Cc3ccccc3C(F)(F)F)CC2)c2ccccc21 [EXAMPLE 48, 1-methyl-1′-(2-(2-(trifluoromethyl)phenyl)acetyl)spiro[indoline-3,4′-piperidin]-2-one] | 86.3% | < 100 nM | 80.6% |  |
| CS(=O)(=O)N1Cc2ccccc2C2(CCN(C(=O)/C=C/c3ccccc3C(F)(F)F)CC2)C1 [EXAMPLE 22, (E)-1-(2-(methylsulfonyl)-2,3-dihydro-1H-spiro[isoquinoline-4,4′-piperidine]-1′-yl)-3-(2-(trifluoromethyl)phenyl)prop-2-en-1-one] | 95.3% | < 100 nM |  |  |
| O=C1NC2(CCN(C(=O)CCc3ccccc3C(F)(F)F)CC2)c2c(Cl)cccc21 [EXAMPLE 65, 7-chloro-1′-(3-(2-(trifluoromethyl)phenyl)propanoyl)spiro[isoindoline-1,4′-piperidin]-3-one] | 87.7% | < 100 nM |  |  |
| O=C(CCc1ccccc1C(F)(F)F)N1CCC2(CC1)C(=O)Nc1ccccc12 [EXAMPLE 67, 1′-(3-(2-(trifluoromethyl)phenyl)propanoyl)spiro[indoline-3,4′-piperidin]-2-one] |  | < 100 nM | 100% |  |
| CN1C(=O)C2(CCN(C(=O)CCc3ccccc3C(F)(F)F)CC2)c2cc(C#N)ccc21 [EXAMPLE 79, 1-methyl-2-oxo-1′-(3-(2-(trifluoromethyl)phenyl)propanoyl)spiro[indoline-3,4′-piperidine]-5-carbonitrile] | 51.4% | 100 to 1000 nM |  |  |
| COc1ccc2c(c1)CCNC21CCN(C(=O)/C=C/c2ccccc2C(F)(F)F)CC1 [EXAMPLE 30, (E)-1-(6-methoxy-3,4-dihydro-2H-spiro[isoquinoline-1,4′-piperidine]-1′-yl)-3-(2-(trifluoromethyl)phenyl)prop-2-en-1-one] | 94.6% | < 100 nM | 90.3% |  |
| CN1C(=O)c2ccccc2C12CCN(C(=O)CCc1ccccc1C(F)(F)F)CC2 [EXAMPLE 55, 2-methyl-1′-(3-(2-(trifluoromethyl)phenyl)propanoyl)spiro[isoindoline-1,4′-piperidin]-3-one] | 76.5% | < 100 nM |  |  |
| O=C1CC2(CCN(C(=O)CNc3ccccc3C(F)(F)F)CC2)c2c(Br)cccc21 [EXAMPLE 107] |  | 100 to 1000 nM |  |  |
| O=C1NC2(CCN(C(=O)Cc3ccccc3C(F)(F)F)CC2)c2c(Br)cccc21 [EXAMPLE 49, 7-bromo-1′-(2-(2-(trifluoromethyl)phenyl)acetyl)spiro[isoindoline-1,4′-piperidin]-3-one] | 49.2% | 100 to 1000 nM |  |  |
| CCN1C(=O)C2(CCN(C(=O)CCc3ccccc3C(F)(F)F)CC2)c2cc(C(=O)OC)ccc21 [EXAMPLE 78, Methyl 1-ethyl-2-oxo-1′-(3-(2-(trifluoromethyl)phenyl)propanoyl)spiro[indoline-3,4′-piperidine]-5-carboxylate] | 52.4% | < 100 nM |  |  |
| O=C1CC2(CCN(C(=O)/C=C/c3c(Cl)cccc3Cl)CC2)c2c(Br)cccc21 [EXAMPLE 17, (E)-7-bromo-1′-(3-(2,6-dichlorophenyl)acryloyl)spiro[indene-1,4′-piperidin]-3(2H)-one] | 81.2% | < 100 nM |  |  |
| O=C(NCc1ccccc1-c1ccccc1)N1CCC2(CC1)OCc1ccccc12 [EXAMPLE 85, N-(biphenyl-2-ylmethyl)-3H-spiro[isobenzofuran-1,4′-piperidine]-1′-carboxamide] | 19.4% | 100 to 1000 nM |  |  |
| O=C(Cc1ccccc1C(F)(F)F)N1CCC2(CC1)C(=O)Nc1ccccc12 [EXAMPLE 47, 1′-(2-(2-(trifluoromethyl)phenyl)acetyl)spiro[indoline-3,4′-piperidin]-2-one] | 83.3% | < 100 nM |  |  |

The remaining lines, values ahead:

| inhibition at 0.111 µM (111 nM) | IC50 | inhibition at 0.1 µM | Average % inhibition at 111 nM (111 nM, 0.111 µM) | SMILES |
| --- | --- | --- | --- | --- |
|  | < 100 nM | 95.7% | 99.2% | O=C(O)CC1CC2(CCN(C(=O)CCc3ccccc3C(F)(F)F)CC2)c2c(Br)cccc21 (single isomer, unassigned) [EXAMPLE 70.2] |
|  | < 100 nM | 96.3% |  | O=C(O)CC1CC2(CCN(C(=O)/C=C/c3ccccc3C(F)(F)F)CC2)c2c(Cl)cccc21 (racemic) [EXAMPLE 3, (±)-(E)-2-(7-chloro-1′-(3-(2-(trifluoromethyl)phenyl)acryloyl)-2,3-dihydrospiro[indene-1,4′-piperidine]-3-yl)acetic acid] |
| 87.4% | < 100 nM | 97.1% |  | O=C(O)CC1CC2(CCN(C(=O)CCc3ccccc3C(F)(F)F)CC2)c2c(Br)cccc21 (centres unmarked) [EXAMPLE 58, 2-(7-bromo-1′-(3-(2-(trifluoromethyl)phenyl)propanoyl)-2,3-dihydrospiro[indene-1,4′-piperidine]-3-yl)acetic acid] |
| 92.7% | < 100 nM |  |  | O=C1NC2(CCN(C(=O)/C=C/c3ccccc3C(F)(F)F)CC2)c2c(Br)cccc21 [EXAMPLE 28, (E)-7-bromo-1′-(3-(2-(trifluoromethyl)phenyl)acryloyl)spiro[isoindoline-1,4′-piperidin]-3-one] |
| 92.6% | < 100 nM | 95.3% |  | O=C1CC2(CCN(C(=O)/C=C/c3ccccc3C(F)(F)F)CC2)c2c(Br)cccc21 [EXAMPLE 15, (E)-7-bromo-1′-(3-(2-(trifluoromethyl)phenyl)acryloyl)spiro[indene-1,4′-piperidin]-3(2H)-one] |
| 97.4% | < 100 nM |  |  | NC(=O)CC1CC2(CCN(C(=O)/C=C/c3ccccc3C(F)(F)F)CC2)c2c(Cl)cccc21 (racemic) [EXAMPLE 6, (±)-(E)-2-(7-chloro-1′-(3-(2-(trifluoromethyl)phenyl)acryloyl)-2,3-dihydrospiro[indene-1,4′-piperidine]-3-yl)acetamide] |
| 75.1% | < 100 nM |  |  | O=C(O)CC1CC2(CCN(C(=O)/C=C/c3ccccc3C(F)(F)F)CC2)c2cc(F)ccc21 (racemic) [EXAMPLE 11, (±)-(E)-2-(6-fluoro-1′-(3-(2-(trifluoromethyl)phenyl)acryloyl)-2,3-dihydrospiro[indene-1,4′-piperidine]-3-yl)acetic acid] |
| 97.6% | < 100 nM |  |  | O=C(O)CC1CC2(CCN(C(=O)CCc3ccccc3C(F)(F)F)CC2)c2c(Br)cccc21 (single isomer, unassigned) [EXAMPLE 70.1] |
| 89.4% | < 100 nM | 94.9% |  | CCOC(=O)CC1CC2(CCN(C(=O)/C=C/c3ccccc3C(F)(F)F)CC2)c2c(Br)cccc21 (racemic) [EXAMPLE 1, (±)-(E)-ethyl 2-(7-bromo-1′-(3-(2-(trifluoromethyl)phenyl)acryloyl)-2,3-dihydrospiro[indene-1,4′-piperidine]-3-yl)acetate] |
| 64.4% | < 100 nM |  |  | CN(Cc1ccccc1C(F)(F)F)C(=O)N1CCC2(CC1)CC(CC(=O)O)c1cccc(Br)c12 (centres unmarked) [EXAMPLE 102, 2-(7-bromo-1′-(methyl(2-(trifluoromethyl)benzyl)carbamoyl)-2,3-dihydrospiro[indene-1,4′-piperidine]-3-yl)acetic acid] |
| 97.4% | < 100 nM | 91.7% |  | O=C(O)CC1CC2(CCN(C(=O)/C=C/c3ccccc3C(F)(F)F)CC2)c2c(Br)cccc21 (racemic) [EXAMPLE 2, (±)-(E)-2-(7-bromo-1′-(3-(2-(trifluoromethyl)phenyl)acryloyl)-2,3-dihydrospiro[indene-1,4′-piperidine]-3-yl)acetic acid] |
|  | < 100 nM | 98.1% |  | CNC(=O)NC1CC2(CCN(C(=O)/C=C/c3ccccc3C(F)(F)F)CC2)c2c(Br)cccc21 (racemic) [EXAMPLE 19, (±)-(E)-1-(7-bromo-1′-(3-(2-(trifluoromethyl)phenyl)acryloyl)-2,3-dihydrospiro[indene-1,4′-piperidine]-3-yl)-3-methylurea] |
